Experimental data: the supplement of paper PMC10307832

compound: CC1=C(C(=NN1)C)CC2=C(C3=C(S2)N(C(=O)N(C3=O)C)CC(C)C)C(=O)N4C[C@@H](CO4)O + CC(=O)Nc1cccc(-n2c(=O)n(C3CC3)c(=O)c3c(Nc4ccc(I)cc4F)n(C)c(=O)c(C)c32)c1 [Trametinib] (partner 0.02 µM); assay: relative viability (nuclei count vs DMSO), 5 days (fraction); higher = more cells survive; settings: first compound 0.0025 µM
Summary of the method: (§1)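 Values are medians from duplicate plates. Each reflects relative viability, defined as the nuclei count of treated wells over that of vehicle wells. Lung cancer cell lines in 1536-well plates were pin-tool dosed one day after seeding with one drug alone or with a fixed anchor-drug dose plus five library-drug doses (not always all listed) in √10 steps, then fixed, stained and imaged at 4× after 5 days.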

Cell Line	relative viability
COR-L 105	0.48
LOU-NH91	0.802
ChaGo-K-1	0.94
NCI-H2405	0.689
HOP-62	0.365
HCC-44	1.11
LU99A	0.522
BEN	0.955
HARA	1.14
HCC-78	0.796
NCI-H322M	0.503
LCLC-97TM1	0.178
NCI-H2009	0.318
A-427	0.748
NCI-H441	0.532
NCI-H661	0.624
NCI-H1734	0.666
NCI-H460	0.158
NCI-H2347	0.269
SK-LU-1	0.47
201T	0.715
NCI-H1915	0.295
HCC-827	0.556
LXF-289	0.705
NCI-H23	0.42
NCI-H647	0.506
NCI-H1651	0.865
EPLC-272H	0.317
NCI-H1792	0.471
NCI-H1355	0.461

same assay, conditions: first compound 0.007906 µM

Cell Line	relative viability
H3255	0.693
COR-L23	0.74
COR-L 105	0.443
LOU-NH91	0.756
ChaGo-K-1	0.871
NCI-H2405	0.627
HOP-62	0.402
HCC-44	1.08
LU99A	0.606
BEN	0.927
HARA	0.991
HCC-78	0.77
NCI-H322M	0.577
LCLC-97TM1	0.184
NCI-H2009	0.286
A-427	0.754

Cell Line	relative viability
NCI-H441	0.424
NCI-H661	0.59
NCI-H1734	0.757
NCI-H460	0.149
NCI-H2347	0.313
SK-LU-1	0.409
201T	0.708
NCI-H1915	0.307
HCC-827	0.542
LXF-289	0.702
NCI-H23	0.526
NCI-H647	0.582
NCI-H1651	0.861
EPLC-272H	0.236
NCI-H1792	0.418
NCI-H1355	0.423

same assay, conditions: first compound 0.025 µM

Cell Line	relative viability
H3255	0.671
COR-L23	0.452
COR-L 105	0.511
LOU-NH91	0.812
ChaGo-K-1	0.889
NCI-H2405	0.618
HOP-62	0.408
HCC-44	1.1
LU99A	0.452
BEN	0.922
HARA	0.759
HCC-78	0.775
NCI-H322M	0.471
LCLC-97TM1	0.249
NCI-H2009	0.289
A-427	0.809

Cell Line	relative viability
NCI-H441	0.458
NCI-H661	0.505
NCI-H1734	0.675
NCI-H460	0.186
NCI-H2347	0.301
SK-LU-1	0.326
201T	0.713
NCI-H1915	0.288
HCC-827	0.529
LXF-289	0.669
NCI-H23	0.421
NCI-H647	0.579
NCI-H1651	0.849
EPLC-272H	0.31
NCI-H1792	0.409
NCI-H1355	0.472

same assay, conditions: first compound 0.07906 µM

Cell Line	relative viability
H3255	0.617
COR-L23	0.547
COR-L 105	0.466
LOU-NH91	0.826
ChaGo-K-1	0.918
NCI-H2405	0.673
HOP-62	0.435
HCC-44	1.05
LU99A	0.57
BEN	0.862
HARA	0.662
HCC-78	0.663
NCI-H322M	0.527
LCLC-97TM1	0.158
NCI-H2009	0.287
A-427	0.754

Cell Line	relative viability
NCI-H441	0.478
NCI-H661	0.583
NCI-H1734	0.62
NCI-H460	0.136
NCI-H2347	0.274
SK-LU-1	0.344
201T	0.739
NCI-H1915	0.302
HCC-827	0.51
LXF-289	0.641
NCI-H23	0.359
NCI-H647	0.558
NCI-H1651	0.798
EPLC-272H	0.295
NCI-H1792	0.548
NCI-H1355	0.402

same assay, conditions: first compound 0.25 µM

Cell Line	relative viability
H3255	0.681
COR-L23	0.712
COR-L 105	0.406
LOU-NH91	0.792
ChaGo-K-1	0.916
NCI-H2405	0.692
HOP-62	0.4
HCC-44	1.05
LU99A	0.532
BEN	0.826
HARA	0.782
HCC-78	0.811
NCI-H322M	0.433
LCLC-97TM1	0.189
NCI-H2009	0.237
A-427	0.763

Cell Line	relative viability
NCI-H441	0.436
NCI-H661	0.56
NCI-H1734	0.665
NCI-H460	0.206
NCI-H2347	0.265
SK-LU-1	0.374
201T	0.694
NCI-H1915	0.32
HCC-827	0.521
LXF-289	0.689
NCI-H23	0.397
NCI-H647	0.448
NCI-H1651	0.819
EPLC-272H	0.352
NCI-H1792	0.585
NCI-H1355	0.442

compound: CC1=C(C(=NN1)C)CC2=C(C3=C(S2)N(C(=O)N(C3=O)C)CC(C)C)C(=O)N4C[C@@H](CO4)O + Nc1ncn([C@H]2C[C@H](O)[C@@H](CO)O2)c(=O)n1 [Decitabine] (partner 2 µM); assay: as above; settings: first compound 0.0025 µM
Summary of the method: as §1

Cell Line	relative viability
H3255	0.567
COR-L23	0.439
COR-L 105	0.574
LOU-NH91	0.83
ChaGo-K-1	0.506
NCI-H2405	0.686
HOP-62	0.197
HCC-44	0.978
LU99A	0.784
BEN	0.626
HARA	0.578
HCC-78	0.658
NCI-H322M	0.63
LCLC-97TM1	0.265
NCI-H2009	0.412
A-427	0.592

Cell Line	relative viability
NCI-H441	0.215
NCI-H661	0.521
NCI-H1734	0.561
NCI-H460	0.512
NCI-H2347	0.638
SK-LU-1	0.524
201T	0.87
NCI-H1915	0.279
HCC-827	0.216
LXF-289	0.432
NCI-H23	0.307
NCI-H647	0.48
NCI-H1651	0.519
EPLC-272H	0.374
NCI-H1792	0.483
NCI-H1355	0.443

same assay, conditions: first compound 0.007906 µM

Cell Line	relative viability
H3255	0.446
COR-L23	0.41
COR-L 105	0.632
LOU-NH91	0.798
ChaGo-K-1	0.509
NCI-H2405	0.746
HOP-62	0.218
HCC-44	0.961
LU99A	0.979
BEN	0.708
HARA	0.578
HCC-78	0.774
NCI-H322M	0.736
LCLC-97TM1	0.237
NCI-H2009	0.408
A-427	0.576

Cell Line	relative viability
NCI-H441	0.255
NCI-H661	0.623
NCI-H1734	0.516
NCI-H460	0.604
NCI-H2347	0.649
SK-LU-1	0.475
201T	0.866
NCI-H1915	0.265
HCC-827	0.34
LXF-289	0.395
NCI-H23	0.329
NCI-H647	0.44
NCI-H1651	0.699
EPLC-272H	0.346
NCI-H1792	0.489
NCI-H1355	0.375

same assay, conditions: first compound 0.025 µM

Cell Line	relative viability
H3255	0.568
COR-L23	0.406
COR-L 105	0.653
LOU-NH91	0.839
ChaGo-K-1	0.508
NCI-H2405	0.752
HOP-62	0.268
HCC-44	0.949
LU99A	0.825
BEN	0.613
HARA	0.653
HCC-78	0.644
NCI-H322M	0.698
LCLC-97TM1	0.219
NCI-H2009	0.342
A-427	0.623

Cell Line	relative viability
NCI-H441	0.298
NCI-H661	0.546
NCI-H1734	0.533
NCI-H460	0.502
NCI-H2347	0.608
SK-LU-1	0.448
201T	0.795
NCI-H1915	0.242
HCC-827	0.323
LXF-289	0.354
NCI-H23	0.289
NCI-H647	0.298
NCI-H1651	0.538
EPLC-272H	0.369
NCI-H1792	0.408
NCI-H1355	0.346

same assay, conditions: first compound 0.07906 µM

Cell Line	relative viability
H3255	0.651
COR-L23	0.304
COR-L 105	0.644
LOU-NH91	0.864
ChaGo-K-1	0.536
NCI-H2405	0.738
HOP-62	0.165
HCC-44	0.912
LU99A	0.901
BEN	0.622
HARA	0.581
HCC-78	0.636
NCI-H322M	0.659
LCLC-97TM1	0.242
NCI-H2009	0.418
A-427	0.605

Cell Line	relative viability
NCI-H441	0.267
NCI-H661	0.542
NCI-H1734	0.451
NCI-H460	0.494
NCI-H2347	0.56
SK-LU-1	0.561
201T	0.865
NCI-H1915	0.258
HCC-827	0.408
LXF-289	0.393
NCI-H23	0.345
NCI-H647	0.535
NCI-H1651	0.579
EPLC-272H	0.354
NCI-H1792	0.451
NCI-H1355	0.324

same assay, conditions: first compound 0.25 µM

Cell Line	relative viability
H3255	0.641
COR-L23	0.381
COR-L 105	0.615
LOU-NH91	0.823
ChaGo-K-1	0.553
NCI-H2405	0.739
HOP-62	0.279
HCC-44	1.06
LU99A	0.976
BEN	0.614
HARA	0.524
HCC-78	0.631
NCI-H322M	0.707
LCLC-97TM1	0.224
NCI-H2009	0.407
A-427	0.604

Cell Line	relative viability
NCI-H441	0.272
NCI-H661	0.58
NCI-H1734	0.503
NCI-H460	0.557
NCI-H2347	0.662
SK-LU-1	0.618
201T	0.82
NCI-H1915	0.265
HCC-827	0.302
LXF-289	0.443
NCI-H23	0.334
NCI-H647	0.321
NCI-H1651	0.567
EPLC-272H	0.352
NCI-H1792	0.517
NCI-H1355	0.332
